This passage reports TGI results from PubChem BioAssay (NCI).

Test in all cases: inhibition of tumour cell growth, NCI panel, 48 h
The test system of assay [1] is SR leukemia.
In assay [2] the test system is MOLT-4 leukemia.
Assay [3] has as its system MCF7 breast.
The subject of assay [4] is HT29 colon.
Assay [5] has as its system OVCAR-8 ovarian.
The test system of assay [6] is RXF 393 renal.
Assay [7] concerns RPMI-8226 leukemia.
In assay [8] the test system is SK-MEL-2 melanoma.
In assay [9] the test system is CAKI-1 renal.
Assay [10] relates to NCI-H226 lung.

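Five compound concentrations were applied to cells in 96-well plates for 48 hours; endpoints were derived by simple linear interpolation of the resulting dose-response curve. TGI denotes the concentration required for complete inhibition of growth.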

Turning to `CC(C)c1cc2c(cc1S(=O)(=O)O)[C@@]1(C)CCC[C@@](C)(C(=O)O)C1CC2` (stereo partly drawn), the TGI in [1], in [2], in assay [3], in [4], in assay [5] and in assay [6] was above 100 µM each time. Besides, the TGI in assay [7], in assay [8], in assay [9] and in assay [10] was above 100 µM in each case.
Take `Cc1ccc(-c2csc(=Nc3ccccc3)n2NC(=O)c2ccncc2)cc1`: the TGI in assay [1] is above 100 µM; in assay [2], above 76.8 µM; in assay [3], above 100 µM; in assay [4], 60 µM; in assay [5], above 90.9 µM; in assay [6], above 100 µM. Besides, the TGI was 75.8 µM in [7], 96.1 µM in assay [8], above 100 µM in assay [9] and above 75.2 µM in [10].
With `Cc1oc2c(cc(O)c3cc(O)ccc32)c2cccc1-2`, the TGI in assay [1], in assay [2], in [3], in [4], in assay [5] and in [6] was above 100 µM each time. Further, the TGI in [7], in assay [8] and in [9] was above 100 µM each time.
Regarding `Oc1ccc2c(c1)c1c(n2CCN2CCOCC2)-c2ccccc2CC1`, the TGI in assay [1] is 91.5 µM; in [2], above 100 µM; in [3], above 100 µM; in assay [4], 45.8 µM; in assay [5], above 100 µM; in assay [6], 75.7 µM. In addition, the TGI in assay [7] was above 100 µM; in assay [8], 55.1 µM; in [9] it was above 100 µM; in [10], 85.6 µM.
As to `COc1ncc(/C=C2\OC(=O)c3ccccc32)c(OC)n1`, the TGI in assay [1], in assay [2], in assay [3], in assay [4], in assay [5] and in [6] was above 100 µM each time. Further, the values for the TGI in assay [7], in [9] and in assay [10] were above 100 µM, 36.8 µM and above 100 µM, respectively.
As to `O=C(OCc1ccccc1)N1CCNCCN(C(=O)OCc2ccccc2)CCNCC1`, the TGI in [1] was above 100 µM; in [2] it was 50.4 µM; in assay [3], 38.8 µM; in assay [4], 42 µM; in assay [5] it was above 100 µM; in assay [6], above 100 µM. The TGI is 47.3 µM in [7], 42.3 µM in assay [8], 55.1 µM in assay [9] and above 100 µM in [10].
For `Nc1nc(-c2ccccc2)nc2oc(-c3cccs3)nc12`, the TGI in assay [1], in assay [2], in assay [3], in [4], in [5] and in [6] was above 100 µM throughout. Also, the TGI in [7], in [8] and in assay [10] was above 100 µM each time.
`Oc1ccc(Cc2cc(Cc3ccc(O)cc3)cc(Cc3ccc(O)cc3)c2)cc1`: the TGI in [1], in assay [2], in [3], in [4], in [5] and in [7] was above 50 µM throughout. The TGI in assay [8] and in [10] was above 50 µM throughout.
`CCCCOC(=O)Nc1ccc(S(=O)(=O)Nc2ccccc2Cl)cc1`: the TGI in assay [1] came out at 26.8 µM; in assay [2], 51.5 µM; in assay [3] it was 42.1 µM; in assay [4] it was 35.9 µM; in assay [5], 40 µM; in assay [6], 55.9 µM. Besides, the TGI in assay [7] was 36.8 µM; in assay [8], 38.8 µM; in assay [9], 44.5 µM.
Regarding `COC(=O)C1CC(C=[N+](C)C)=C(SC)N1C(=O)OCc1ccccc1` (stereo not drawn), the TGI in assay [1], in [2], in assay [3], in [4], in [5] and in [6] was above 100 µM in each case. Besides, the TGI in assay [7], in assay [8] and in [9] was above 100 µM throughout.
Take `O=C(N/N=C/c1ccc(Cl)cc1)c1c(Cl)c(Cl)c(Cl)c(Cl)c1-c1nc2ccccc2[nH]1`: the TGI in assay [1], in assay [2], in assay [3], in [4], in [6] and in assay [7] was above 100 µM throughout. Further, the TGI in assay [8], in assay [9] and in [10] was above 100 µM throughout.
On to `COc1cccc(Nc2nc(-c3cccs3)nc3cc(OC)c(OC)cc23)c1`, for which the TGI in [1] was 76.9 µM; in [2] it was above 100 µM; in assay [3] it was 49.2 µM; in [4], 48.8 µM; in assay [5], 78.5 µM; in [7], 27.3 µM. Besides, the values for the TGI in assay [8], in [9] and in assay [10] were above 100 µM, 73.4 µM and above 100 µM, respectively.
With `C=CC1(CC/C(=C\[N+](=O)[O-])c2ccc(OC)c(OC)c2)OCC(C)(C)CO1`, the TGI was 29.4 µM in assay [1]; 6.05 µM in assay [2]; above 100 µM in [3]; 97.8 µM in [4]; 36.9 µM in assay [5]; 36.3 µM in assay [6]. For the same molecule, the TGI came out at 37.7 µM in [8], 52.9 µM in assay [9] and 56 µM in [10].
For the molecule `Nn1c(Nc2ccc(S(=O)(=O)Nc3ncccn3)cc2)nnc(/C=C/c2c(O)ccc3ccccc23)c1=O`, the TGI in [1] is 66.8 µM; in assay [2], above 100 µM; in [3] it was 60.3 µM; in assay [4], above 100 µM; in assay [5] it was above 100 µM; in assay [6], 80.3 µM. Also, the values for the TGI in assay [7], in assay [8] and in assay [9] were above 100 µM, 51.1 µM and 89.9 µM, respectively.
`CC1(C(=O)O)CCC2(C)CCC3(C)C(=CC(=O)C4C5(C)CCC(O)C(C)(C)C5CCC43C)C2C1` (stereo not drawn): the TGI in assay [1] is 61 µM; in assay [2], above 100 µM; in assay [3] it was above 100 µM; in assay [4], 38.7 µM; in [5] it was above 100 µM; in assay [6], 83 µM. The TGI in assay [8] is 92.4 µM; in assay [9], above 100 µM; in [10], above 100 µM.
